These results are taken from US20060287319A1, “Anti-viral compositions comprising heterocyclic substituted phenyl furans and related compounds” (priority 2005, published 2006).

In general, EC50 refers to the concentration needed to bring the measured effect to its halfway point. As usually defined, the CC50 is the concentration at which the toxic effect on the cells reaches its halfway point.

The test system of series [1] is HIV-1IIIB infected H9 cells (H9/HIV-1IIIB) and MT-2 cells. The series is described as follows: HIV-1 mediated cell-cell fusion (dye transfer assay). The format is cell-based. The conditions noted are these: H9/HIV-1IIIB with MT-2 cells; read-out: EC50 (μM) (M ± SD) for inhibition of Cell fusion. On the procedure:
Inhibition of cell-cell fusion. A dye transfer assay was used for detection of HIV-1 mediated cell fusion as previously described (11,25,26). H9/HIV-1IIIB cells were labeled with a fluorescent reagent, Calcein-AM (Molecular Probes, Inc., Eugene, Oreg.) and then incubated with MT-2 cells (ratio=1:5) in 96-well plates at 37° C. for 2 hrs in the presence or absence of compounds tested. The fused and unfused Cacein-labeled HIV-1-infected cells were counted under an inverted fluorescence microscope (Zeiss, Germany) with an eyepiece micrometer disc. The percentage of inhibition of cell fusion and the IC50 values were calculated as previously described (11).

The subject of series [2] is HIV-1 IIIB. Particulars: for EC50: read-out: EC50 (μM) (M ± SD) for inhibition of p24, HIV-1 IIIB, MT-2 cells. The method, then:
Assessment of anti-HIV-1 infectivity. The inhibitory activity of compounds on infection by laboratory-adapted HIV-1 strains was determined as previously described (34). […] For the time-of-addition assay, compounds were added at various time post-infection. Then the culture supernatants were removed and fresh media were added. On the fourth day post-infection, 100 μl of culture supernatants were collected from each well, mixed with equal volumes of 5% Triton X-100 and assayed for p24 antigen, which was quantitated by ELISA (23). Briefly, the wells of polystyrene plates (Immulon 1B, Dynex Technology, Chantilly, Va.) were coated with HIV immunoglobulin (HIVIG), which was prepared from plasma of HIV-seropositive donors with high neutralizing titers against HIV-1IIIB as previously described (36) in 0.085 M carbonate-bicarbonate buffer (pH 9.6) at 4° C. overnight, followed by washes with PBS-T buffer (0.01M PBS containing 0.05% Tween-20) and blocking with PBS containing 1% dry fat-free milk (Bio-Rad Inc., Hercules, Calif.). Virus lysates were added to the wells and incubated at 37° C. for 1 h. […] Reactions were terminated by addition of 1N H2SO4. […] Recombinant protein p24 (US Biological, Swampscott, Mass.) was included for establishing standard dose response curve.

The test system of series [3] is HIV-1 IIIB. Briefly: HIV-1-mediated cytopathic effect (CPE). Particulars: read-out: EC50 (μM) (M ± SD) for inhibition of CPE. The format is cell-based. From the text: We thus purchased these compounds and tested their inhibitory activity on: 1) HIV-1 replication (p24 production); 2) HIV-1-mediated cytopathic effect (CPE); and 3) HIV-1 Env-induced cell-cell fusion; and their cytotoxicity to MT-2 cells.
On the technique in general: Protection from cytopathic effect is a common read-out in antiviral testing.

Series [4] concerns MT-2 cells. On the procedure: Detection of in vitro cytotoxicity. The in vitro cytotoxicity of compounds for MT-2 cells was measured by a colorimetric method using XTT tetrazolium dye as previously described (21). Briefly, 100 μl of a compound at a graded concentration was added to equal volume of cells (5×10^5/ml) in a well of 96-well plates. After incubation at 37° C. for 4 days, XTT (1 mg/ml; […]; PolySciences, Inc., Warrington, Pa.) was added. Four hours later, the soluble intracellular formazan was quantitated colorimetrically at 450 nm with a reference at 570 nm.

Where [5] appears, read: read-out: Cytotoxicity CC50 (μM) (M ± SD), MT-2 cells.

Molecules are shown by their SMILES. Read-outs that look alike come from different tables or passages of the source.

Turning to `Cc1cccc(NC(=O)CN2C(=O)S/C(=C\c3ccc(-c4cc(C(=O)O)ccc4Cl)o3)C2=O)c1` [NB198], the EC50 in series [1], in series [2] and in series [3] was above 100 µM throughout. Further, in series [4], the CC50 was above 322 µM.
In the case of `Cc1ccc(NC(=O)CN2C(=O)S/C(=C\c3ccc(-c4ccc(Cl)c(C(=O)O)c4)o3)C2=O)cc1` [NB199], the 50% effective concentration (EC50) in series [1], in series [2] and in series [3] was above 100 µM each time. This compound also came in with a 50% cytotoxic concentration (CC50) in series [4] above 322 µM.
On to `C#CCN1C(=O)S/C(=C\c2ccc(-c3ccc(Cl)c(C(=O)O)c3)o2)C1=O` [NB200], for which the concentration giving a half-maximal response (EC50) in series [1], in series [2] and in series [3] was above 100 µM in each case. In series [4], this compound had a CC50 above 413 µM.
For the compound `COCCN1C(=O)/C(=C/c2ccc(-c3ccc(Cl)c(C(=O)O)c3)o2)SC1=S` [NB201], the EC50 is 33.2 ± 0.566 µM in series [1], 10.7 ± 3.09 µM in series [2] and above 100 µM in series [3]. Besides, the “SI (CC50/EC50)” value in series [2] was found to be 11.08. The CC50 in series [4] worked out at 118 ± 8.54 µM.
Consider `O=C(O)c1cc(-c2ccc(/C=C3\SC(=O)N(CC(=O)N4CCOCC4)C3=O)o2)ccc1Cl` [NB202], for which the concentration giving a half-maximal response (EC50) in series [1], in series [2] and in series [3] was above 100 µM each time. Besides, the CC50 in series [4] (setting [5]) was above 336 µM.
On to `C#CCN1C(=O)S/C(=C\c2ccc(-c3cc(C(=O)O)ccc3Cl)o2)C1=O` [NB203], for which the concentration for a half-maximal effect (EC50) in series [1], in series [2] and in series [3] was above 100 µM each time. Also, the 50% cytotoxic concentration (CC50) in series [4] is above 413 µM.
With `CCOC(=O)CN1C(=O)S/C(=C\c2ccc(-c3ccc(Cl)c(C(=O)O)c3)o2)C1=O` [NB204], the EC50 in series [1], in series [2] and in series [3] was above 100 µM throughout. The same compound had a cytotoxic concentration (CC50) in series [4] above 366 µM.
With `C#CCN1C(=O)S/C(=C\c2ccc(-c3cc(C(=O)O)ccc3C)o2)C1=O` [NB205], the half-maximal effective concentration (EC50) in series [1], in series [2] and in series [3] was above 100 µM throughout. The CC50 in series [4] is above 435 µM.
As for `Cc1cccc(NC(=O)CN2C(=O)S/C(=C\c3ccc(-c4ccc(Cl)c(C(=O)O)c4)o3)C2=O)c1` [NB207], the EC50 in series [1], in series [2] and in series [3] was above 100 µM each time. In addition, the cytotoxic concentration (CC50) in series [4] is above 464 µM.
For `O=C(O)c1cc(-c2ccc(/C=C3\SC(=S)N(Cc4ccc(F)cc4)C3=O)o2)ccc1Cl` [NB208], the concentration giving a half-maximal response (EC50) is 6.668 ± 0.042 µM in series [1], 1.84 ± 0.654 µM in series [2] and above 100 µM in series [3]. Besides, the “SI (CC50/EC50)” value in series [2] (selectivity index) is given as 29.77. In addition, the CC50 in series [4] (setting [5]) worked out at 54.6 ± 15.3 µM.
`Cc1cccc(NC(=O)CN2C(=O)S/C(=C\c3ccc(-c4cccc(C(=O)O)c4C)o3)C2=O)c1` [NB209]: the EC50 in series [1], in series [2] and in series [3] was above 100 µM throughout. This compound had a half-maximal cytotoxic concentration (CC50) in series [4] of 113 ± 14.8 µM.
Consider `COc1ccc(CN2C(=O)/C(=C/c3ccc(-c4ccc(Cl)c(C(=O)O)c4)o3)SC2=S)cc1` [NB211], for which the results for the EC50 in series [1], in series [2] and in series [3] were 68.6 ± 1.83 µM, 1.13 ± 0.103 µM and 2.23 ± 0.515 µM, respectively. Besides, the “SI (CC50/EC50)” value in series [2] is 82.24. The compound further showed a CC50 in series [4] of 93.2 ± 4.41 µM.
`O=C(O)c1cc(-c2ccc(/C=C3\SC(=S)N(c4ccc(Cl)cc4)C3=O)o2)ccc1Cl` [NB213]: the EC50 in series [1] came out at 14.7 ± 0.599 µM; in series [2] it was 0.514 ± 0.128 µM; in series [3] it was 3.7 ± 1.01 µM. For the same compound, the “SI (CC50/EC50)” value in series [2] (selectivity index) turned out to be 181.04. Also, the CC50 in series [4] (setting [5]) was 93 ± 12.8 µM.
As for `CCN1C(=O)/C(=C/c2ccc(-c3ccc(Cl)c(C(=O)O)c3)o2)SC1=S` [NB214], the EC50 in series [1] amounted to 2.23 ± 0.082 µM; in series [2], 0.943 ± 0.144 µM; in series [3], 3.53 ± 0.738 µM. In addition, the “SI (CC50/EC50)” value in series [2] worked out at 47.5. Further, in series [4], the CC50 was determined as 44.8 ± 1.25 µM.
Turning to `C#CCN1C(=O)S/C(=C\c2ccc(-c3cccc(C(=O)O)c3)o2)C1=O` [NB216], the concentration for a half-maximal effect (EC50) in series [1], in series [2] and in series [3] was above 100 µM in each case. The compound also showed a CC50 in series [4] of 55.3 ± 10 µM.
For the compound `O=C(O)c1cc(-c2ccc(/C=C3\SC(=S)N(C4CCCCC4)C3=O)o2)ccc1Cl` [NB219], the concentration for a half-maximal effect (EC50) in series [1] turned out to be 4.3 ± 0.134 µM; in series [2] it was 0.087 ± 0.04 µM; in series [3], 0.401 ± 0.067 µM. Further, the “SI (CC50/EC50)” value in series [2] (selectivity index) was found to be 78.97. In addition, the CC50 in series [4] (setting [5]) was 6.87 ± 0.29 µM.
Take `O=C(O)c1cccc(-c2ccc(/C=C3\SC(=S)N(c4cccc5ccccc45)C3=O)o2)c1` [NB221]: the half-maximal effective concentration (EC50) worked out at 7.11 ± 0.24 µM in series [1], 0.46 ± 0.009 µM in series [2] and 1.58 ± 0.241 µM in series [3]. Also, in series [2] (selectivity index), the “SI (CC50/EC50)” value was found to be 75.04. In addition, the CC50 in series [4] (setting [5]) turned out to be 34.5 ± 0.46 µM.
With `O=C(O)c1cc(-c2ccc(/C=C3\SC(=S)N(c4ccc([N+](=O)[O-])cc4)C3=O)o2)ccc1Cl` [NB222], the half-maximal effective concentration (EC50) in series [1], in series [2] and in series [3] was above 100 µM each time. Further, in series [4] (setting [5]), the CC50 was above 328 µM.
As for `COC(=O)c1ccccc1N1C(=O)/C(=C/c2ccc(-c3ccc(Cl)c(C(=O)O)c3)o2)SC1=S` [NB226], the EC50 in series [1] is above 100 µM; in series [2] it was 2.12 ± 0.38 µM; in series [3], 3.46 ± 0.2 µM. In series [4], this compound had a CC50 above 320 µM.
Regarding `Cc1c(C(=O)O)cccc1-c1ccc(/C=C2\SC(=S)N(CC(=O)O)C2=O)o1` [NB228], the EC50 in series [1], in series [2] and in series [3] was above 100 µM throughout. The CC50 in series [4] was above 397 µM.
On to `O=C(O)c1cccc(-c2ccc(/C=C3\SC(=S)N(c4ccc(F)cc4)C3=O)o2)c1` [NB229], for which the EC50 in series [1], in series [2] and in series [3] was above 100 µM in each case. The compound also showed a half-maximal cytotoxic concentration (CC50) in series [4] above 376 µM.
`Cc1ccc(N2C(=O)/C(=C/c3ccc(-c4cccc(C(=O)O)c4)o3)SC2=S)cc1` [NB230]: the EC50 in series [1] is 3.08 ± 0.047 µM; in series [2], 0.332 ± 0.095 µM; in series [3] it was 2.16 ± 0.284 µM. Moreover, the “SI (CC50/EC50)” value in series [2] (selectivity index) amounted to 428.93. For the same compound, the cytotoxic concentration (CC50) in series [4] (setting [5]) amounted to 142 µM.
For the compound `CCC(C)N1C(=O)S/C(=C\c2ccc(-c3cc(C(=O)O)ccc3Cl)o2)C1=O` (stereo not drawn) [NB232], the EC50 in series [1], in series [2] and in series [3] was above 100 µM each time. Further, in series [4], the CC50 is above 394 µM.
With `COC(=O)CN1C(=O)S/C(=C\c2ccc(-c3cc(C(=O)O)ccc3Cl)o2)C1=O` [NB234], the 50% effective concentration (EC50) in series [1], in series [2] and in series [3] was above 100 µM throughout. In addition, in series [4] (setting [5]), the CC50 is above 379 µM.
Regarding `O=C(O)CN1C(=O)/C(=C/c2ccc(-c3cc(C(=O)O)ccc3Cl)o2)SC1=S` [NB235], the half-maximal effective concentration (EC50) in series [1], in series [2] and in series [3] was above 100 µM throughout. In series [4], this compound had a half-maximal cytotoxic concentration (CC50) above 378 µM.
As to `CCN1C(=O)S/C(=C\c2ccc(-c3cc(C(=O)O)ccc3Cl)o2)C1=O` [NB236], the half-maximal effective concentration (EC50) in series [1], in series [2] and in series [3] was above 100 µM each time. This compound registered a half-maximal cytotoxic concentration (CC50) in series [4] of 113 ± 8.64 µM.
Take `COC(=O)C(C)N1C(=O)S/C(=C\c2ccc(-c3cc(C(=O)O)ccc3C)o2)C1=O` (stereo not drawn) [NB237]: the half-maximal effective concentration (EC50) in series [1], in series [2] and in series [3] was above 100 µM in each case. The compound further displayed a cytotoxic concentration (CC50) in series [4] of 67.7 ± 15 µM.
`O=C1/C(=C/c2ccc(-c3cccc(Cl)c3)o2)SC(=S)N1c1ccccc1` [NB239]: the EC50 in series [1], in series [2] and in series [3] was above 100 µM throughout. The cytotoxic concentration (CC50) in series [4] (setting [5]) is above 402 µM.
